{
  "source": "patent US12605423B2",
  "about": "“Peptide inhibitors targeting methyltransfer mechanism of SARS-CoV-2” (United Arab Emirates University, priority 2021, dated 2026)",
  "key": {"IL-6": {"system": "IL-6", "assay_type": "cell-based", "settings": "10 μM peptide, versus PBS control; for IL-6 induction: NCIH1792 (H1792) human lung cells"}, "in vitro": {"experiment": "in vitro", "settings": "human, Cytotoxic Concentration (CC50), Caco-2 cells"}},
  "note": "Entries after “also recorded” stand apart in the source; their conditions may differ.",
  "data": [
    {"molecule": "CC[C@H](C)[C@H](NC(=O)[C@H](Cc1c[nH]cn1)NC(=O)[C@H](CS)NC(=O)[C@H](CCCNC(=N)N)NC(=O)[C@H](CS)NC(=O)[C@H](Cc1ccc(O)cc1)NC(=O)[C@H](CC(C)C)NC(=O)[C@H](CS)NC(=O)[C@H](CS)NC(=O)[C@H](CO)NC(=O)[C@H](C)NC(=O)CNC(=O)CNC(=O)[C@H](Cc1ccccc1)NC(=O)CNC(=O)[C@H](CO)NC(=O)CNC(=O)[C@H](CCCNC(=N)N)NC(=O)[C@H](CCCNC(=N)N)NC(=O)[C@H](CCCNC(=N)N)NC(=O)[C@H](CCC(N)=O)NC(=O)[C@H](CCCNC(=N)N)NC(=O)[C@H](CCCNC(=N)N)NC(=O)[C@H](CCCCN)NC(=O)[C@H](CCCCN)NC(=O)[C@H](CCCNC(=N)N)NC(=O)CNC(=O)[C@H](Cc1ccc(O)cc1)NC(C)=O)C(=O)N[C@@H](CC(=O)O)C(=O)N[C@@H](Cc1c[nH]cn1)C(=O)N1CCC[C@H]1C(=O)N[C@@H](CC(N)=O)C(=O)N1CCC[C@H]1C(=O)N[C@@H](CCCCN)C(=O)NCC(=O)N[C@@H](Cc1ccccc1)C(=O)N[C@@H](CS)C(=O)N[C@@H](CC(=O)O)C(=O)N[C@@H](CC(C)C)C(=O)N[C@@H](CCCCN)C(=O)NCC(=O)N[C@@H](CCCCN)C(=O)N[C@@H](Cc1ccc(O)cc1)C(N)=O", "note": "[Peptide P1]", "values": [
      {"measurement": "stimulation of the intrinsic secretion of IL-6", "setting": "IL-6; NCIH1792 (H1792) cells", "result": "more than 4 fold"},
      {"measurement": "IL-6 induction", "setting": "IL-6", "result": "strongly increased IL-6 secretion; also recorded: profound induction of IL-6 secretion"},
      {"measurement": "CC50", "setting": "in vitro", "result": 11, "unit": "µg/mL"}
    ]},
    {"molecule": "YGRKKRRQRRRGSG [TAT sequence, reference compound]", "values": [
      {"measurement": "IL-6 induction", "setting": "IL-6", "result": "no increase in IL-6"}
    ]}
  ]
}
